{"source": "paper PMC10885103", "about": "“Deciphering the Synthetic and Refolding Strategy of a Cysteine-Rich Domain in the Tumor Necrosis Factor Receptor (TNF-R) for Racemic Crystallography Analysis and D-Peptide Ligand Discovery” (ACS Bio & Med Chem Au, 2023)", "key": {"D-TNFR-1 CRD2 [1]": {"tested_on": "D-TNFR-1 CRD2", "experiment": "GCI (RAPID, repeated analyte pulses of increasing duration) of TCPB-E isomers on D-TNFR-1 CRD2", "assay_type": "binding", "settings": "fixed concentration of each conformer, D-TNFR-1 CRD2, blank subtracted", "description": "(§1) Grating-coupled interferometry (GCI) experiments were performed on a Creoptix WAVEsystem using 4PCH-STA WAVE sensor chips (polycarboxylate surface, streptavidin coated) or 4PCH WAVE sensor chips (polycarboxylate surface) as indicated. Chips were first conditioned with borate buffer (0.1 M sodium borate, pH 9, 1 M Sodium chloride).\nS4. Identification of active binding peptide conformer\nFigure S4.1: Six possible conformers of TCPB, oxidized with either glutathione (TCPB-E-G) or cysteine […]\nTCPB solution phase oxidation […]\nform. In a 10 mL round bottomed flask, the peptide (50 μM) was dissolved in 5 mL of buffer (0.1 M phosphate, pH 6) containing 0.5 mM of either cystine or glutathione. The reaction mixtures were stirred for six hours at room temperature. Reaction completion was confirmed by LCMS, by taking 10 μL of reaction mixture and diluting with 90 μL of distilled water. The two disulfide bonded products for each cysteine and glutathione mixture were isolated by semi-preparative HPLC.\n(§2) (1 picture or pasted object on this page, not shown here)\nFigure S4.6: LCMS disulfide bond mapping of isolated TCPB-E peak i, oxidized with glutathione disulfide.\nLyophilized peptide was digested with chymotypsin (0.1 mg/mL) in phosphate buffer ( 0.1 M, pH 6) at room temperature for 12 hours. […]"}, "D-TNFR-1 CRD2 [2]": {"tested_on": "D-TNFR-1 CRD2", "experiment": "GCI single-cycle binding of TCPB-E-C1 and -C4 isomers to D-TNFR-1 CRD2", "settings": "single cycle of association and dissociation, 50 μM of each peptide conformer, blank subtracted", "description": "as §1\nFigure S4.10: Grating-coupled interferometry (GCI) analysis of TCPB-E-C1 and -C4 isomers binding to\nD-TNFR-1 CRD2. A single cycle of association and dissociation were passed over the sensor surface, with\nμM of each peptide conformer. Sensograms shown are blank subtracted (target flow cell - flow cell with 50\nTCPB-E-C4. The TCPB-E-C1 conformer was thus identified as the active form of the TCPB peptide.\nas §2"}, "D-TNFR-1 CRD2 [3]": {"tested_on": "D-TNFR-1 CRD2", "experiment": "Mirror-image phage display against D-TNFR-1 CRD2", "assay_type": "binding", "settings": "after three rounds of biopanning, D-TNFR-1 CRD2 3 μg on streptavidin/neutravidin beads", "excerpt": "The receptor mimic was subjected to mirror-image molecular screening as a means of seeking ligands that inhibit TNF-α binding. […] A D-peptide inhibitor could be potentially tested as a candidate against TNFR-1-related inflammatory diseases localized in the protease-rich gastrointestinal tract.[10b],[20] Consequently, the D-TNFR-1 CRD2 serves as a receptor mimic in mirror-image phage display (MIPD), a molecular screening technique that exploits the concept of reflection symmetry for the discovery of peptide ligands in opposite chirality.[5b] To conduct the experiment, D-TNFR-1 CRD2 was biotinylated at the C-terminus, immobilized onto streptavidin-coated beads, and subjected to phage display. Subsequently, bacteriophage libraries[21] consisted of the sequence format CX9C where X could be any canonical amino acid and terminal cysteine residues used for cyclization were tested. […] This was confirmed by an additional phage display experiment, in which the WLG motif was fixed in the format CX4WLGX2C.\nThe peptides were linked to the gene-3 coat protein (pIII) via a trialanine (Ala-Ala-Ala) spacer. Gel purified DNA encoding the libraries were ligated into the pCantab 5E phagemid vector, and transformed into chemically competent E. coli TG1. 20-fold excess of helper phage M13KO7 was used during rescue and amplification of the bacteriophages. […]"}}, "note": "Where no end group is shown, it is not given here."}
{"sequence": "CFHCIWLGDEC (disulfide (positions not given here)) [TCPB, intramolecular disulfide bond between residues 4–11, cysteinylated at position 1]", "values": [{"measurement": "sensor response with respect to concentration among TCPB-E isomers", "setting": "D-TNFR-1 CRD2 [1]", "result": "highest sensor response"}, {"measurement": "sensor response/binding of TCPB-E isomers to D-TNFR-1 CRD2", "setting": "D-TNFR-1 CRD2 [2]", "result": "highest sensor response"}]}
{"sequence": "CFHCVWLGMEC", "values": [{"measurement": "phage display selection outcome, experiment 1", "setting": "D-TNFR-1 CRD2 [3]; CX9C library", "result": "enriched"}]}
{"sequence": "CFHCIWLGDEC", "values": [{"measurement": "phage display selection outcome, experiment 2", "setting": "D-TNFR-1 CRD2 [3]; CX4WLGX2C library", "result": "most abundant peptide sequence"}]}
